A short description of this series: wn = mass fraction of the nth substance listed. The conditions noted are these: 298.2 K, Pendant drop shape.

Numbers after ± are expanded uncertainties.

Our source for the surface tension liquid-gas values is the NIST ThermoML archive (doi:10.1016/j.jct.2015.08.039).

`CCCC[N+](CCCC)(CCCC)CCCC.[Br-]` [tetrabutylammonium bromide] + O: the surface tension liquid-gas (in general, the work needed to enlarge the surface of a liquid by unit area) is reported as 53.82 ± 1.4 mN/m (w1 = 0.0697); 50.58 ± 1.3 mN/m (w1 = 0.1); 49.72 ± 1.2 mN/m (w1 = 0.14); 46.19 ± 1.1 mN/m (w1 = 0.3); 44.48 ± 1.2 mN/m (w1 = 0.4).
